In article PMC9856672, “SGC-CAMKK2-1: A Chemical Probe for CAMKK2” (Cells, 2023):

What was measured:
[1] = target: T1, RIPK4 (Homo sapiens, UniProt P57078); assay: DiscoverX KINOMEscan binding assay at 1 μM, RIPK4; conditions: Compound Concentration 1000 nM, read-out: Percent Control
T1 construct: purchased Eurofins DiscoverX KINOMEscan
Excerpt: (§1) Supplement cells-12-00287-s001.zip/File S2. KinomeScan data for the CAMKK2 probe and negative control.xlsx, sheet "SGC-CAMKK2-1" | column: Percent Control

[2] = target: T2, CTK (Homo sapiens, UniProt P42679); assay: KINOMEscan 1 μM, CTK; assay type: binding; conditions: 1000 nM; Entrez MATK; read-out: Percent Control
T2 construct: purchased Eurofins DiscoverX KINOMEscan
Excerpt: as §1

[3] = target: T3, PIK3CA(I800L) (Homo sapiens, UniProt P42336, I800L); assay: KINOMEscan 1 μM, PIK3CA(I800L); assay type: binding; conditions: 1000 nM; Entrez PIK3CA; read-out: Percent Control
T3 construct: purchased Eurofins DiscoverX KINOMEscan
Excerpt: as §1

[4] = target: T4, HUNK (Homo sapiens, UniProt P57058); assay: KINOMEscan 1 μM, HUNK; assay type: binding; conditions: 1000 nM; Entrez HUNK; read-out: Percent Control
T4 construct: purchased Eurofins DiscoverX KINOMEscan
Excerpt: as §1

[5] = target: T5, EGFR(G719C) (Homo sapiens, UniProt P00533, G719C); assay: KINOMEscan 1 μM, EGFR(G719C); assay type: binding; conditions: 1000 nM; Entrez EGFR; read-out: Percent Control
T5 construct: purchased Eurofins DiscoverX KINOMEscan
T5 sequence (P00533 25-1210 G719C): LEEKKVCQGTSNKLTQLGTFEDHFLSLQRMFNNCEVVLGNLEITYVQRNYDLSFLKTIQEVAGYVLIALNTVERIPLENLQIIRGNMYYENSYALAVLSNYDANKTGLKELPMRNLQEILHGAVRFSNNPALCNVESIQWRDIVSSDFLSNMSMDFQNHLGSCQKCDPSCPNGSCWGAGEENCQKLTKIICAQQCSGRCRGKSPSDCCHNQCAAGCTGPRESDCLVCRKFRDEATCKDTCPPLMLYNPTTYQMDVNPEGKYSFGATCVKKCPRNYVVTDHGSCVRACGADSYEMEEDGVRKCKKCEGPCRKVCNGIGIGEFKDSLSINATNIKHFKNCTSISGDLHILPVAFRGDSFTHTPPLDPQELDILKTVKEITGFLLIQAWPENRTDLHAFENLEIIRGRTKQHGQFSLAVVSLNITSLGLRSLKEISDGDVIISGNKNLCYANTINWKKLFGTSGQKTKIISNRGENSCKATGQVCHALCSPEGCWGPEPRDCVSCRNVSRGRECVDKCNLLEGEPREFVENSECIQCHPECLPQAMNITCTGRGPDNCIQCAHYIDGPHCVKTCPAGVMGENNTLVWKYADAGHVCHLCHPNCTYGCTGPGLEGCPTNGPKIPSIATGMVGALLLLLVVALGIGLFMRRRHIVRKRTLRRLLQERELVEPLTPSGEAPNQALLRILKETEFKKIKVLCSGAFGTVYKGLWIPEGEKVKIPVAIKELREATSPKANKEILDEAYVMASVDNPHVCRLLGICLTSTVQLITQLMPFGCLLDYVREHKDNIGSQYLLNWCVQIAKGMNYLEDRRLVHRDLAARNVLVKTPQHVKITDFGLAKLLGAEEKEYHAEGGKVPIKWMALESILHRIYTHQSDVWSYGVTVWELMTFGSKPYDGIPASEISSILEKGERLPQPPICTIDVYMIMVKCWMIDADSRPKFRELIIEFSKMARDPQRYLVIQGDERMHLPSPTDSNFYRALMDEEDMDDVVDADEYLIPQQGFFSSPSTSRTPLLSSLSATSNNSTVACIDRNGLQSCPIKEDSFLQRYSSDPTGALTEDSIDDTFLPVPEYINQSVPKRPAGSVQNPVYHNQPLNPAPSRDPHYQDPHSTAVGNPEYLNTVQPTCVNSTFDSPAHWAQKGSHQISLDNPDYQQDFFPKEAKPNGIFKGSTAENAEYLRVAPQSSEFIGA
Excerpt: as §1

[6] = target: T6, JAK2(JH1domain-catalytic) (Homo sapiens, UniProt O60674); assay: KINOMEscan 1 μM, JAK2(JH1domain-catalytic); assay type: binding; conditions: 1000 nM; Entrez JAK2; read-out: Percent Control
T6 construct: JAK2(JH1domain-catalytic); purchased Eurofins DiscoverX KINOMEscan
Excerpt: as §1

[7] = target: T7, BRSK2 (Homo sapiens, UniProt Q8IWQ3); assay: KINOMEscan 1 μM, BRSK2; assay type: binding; conditions: 1000 nM; Entrez BRSK2; read-out: Percent Control
T7 construct: purchased Eurofins DiscoverX KINOMEscan
Excerpt: as §1

[8] = target: T8, RPS6KA4(Kin.Dom.2-C-terminal) (Homo sapiens, UniProt O75676); assay: DiscoverX KINOMEscan binding assay at 1 μM, RPS6KA4(Kin.Dom.2-C-terminal); conditions: Compound Concentration 1000 nM, read-out: Percent Control
T8 construct: RPS6KA4(Kin.Dom.2-C-terminal); purchased Eurofins DiscoverX KINOMEscan
Excerpt: as §1

[9] = target: T9, NIK (Homo sapiens, UniProt Q99558); assay: KINOMEscan 1 μM, NIK; assay type: binding; conditions: 1000 nM; Entrez MAP3K14; read-out: Percent Control
T9 construct: purchased Eurofins DiscoverX KINOMEscan
Excerpt: as §1

[10] = target: T10, EGFR(L858R,T790M) (Homo sapiens, UniProt P00533, L858R/T790M); assay: KINOMEscan 1 μM, EGFR(L858R,T790M); assay type: binding; conditions: 1000 nM; Entrez EGFR; read-out: Percent Control
T10 construct: purchased Eurofins DiscoverX KINOMEscan
Excerpt: as §1

[11] = target: T11, FLT3(D835Y) (Homo sapiens, UniProt P36888, D835Y); assay: KINOMEscan 1 μM, FLT3(D835Y); assay type: binding; conditions: 1000 nM; Entrez FLT3; read-out: Percent Control
T11 construct: purchased Eurofins DiscoverX KINOMEscan
Excerpt: as §1

[12] = target: T12, NEK4 (Homo sapiens, UniProt P51957); assay: KINOMEscan 1 μM, NEK4; assay type: binding; conditions: 1000 nM; Entrez NEK4; read-out: Percent Control
T12 construct: purchased Eurofins DiscoverX KINOMEscan
Excerpt: as §1

[13] = target: T13, MARK3 (Homo sapiens, UniProt P27448); assay: KINOMEscan at 1 μM, MARK3; assay type: binding; conditions: 1000 nM, read-out: Percent Control
T13 construct: purchased Eurofins DiscoverX KINOMEscan
Excerpt: (§2) Supplement cells-12-00287-s001.zip/File S2. KinomeScan data for the CAMKK2 probe and negative control.xlsx, sheet "SGC-CAMKK2-1N" | column: Percent Control

[14] = target: T14, FAK (Homo sapiens, UniProt Q05397); assay: KINOMEscan at 1 μM, FAK; assay type: binding; conditions: 1000 nM, read-out: Percent Control
T14 construct: purchased Eurofins DiscoverX KINOMEscan
Excerpt: as §2

[15] = target: T15, PIK3C2G (Homo sapiens, UniProt O75747); assay: KINOMEscan binding assay at 1 μM, PIK3C2G; conditions: Compound Concentration 1000 nM; read-out: Percent Control
T15 construct: purchased Eurofins DiscoverX KINOMEscan
Excerpt: as §2

[16] = target: T16, STK36 (Homo sapiens, UniProt Q9NRP7); assay: KINOMEscan at 1 μM, STK36; assay type: binding; conditions: 1000 nM, read-out: Percent Control
T16 construct: purchased Eurofins DiscoverX KINOMEscan
T16 sequence (Q9NRP7 whole entry): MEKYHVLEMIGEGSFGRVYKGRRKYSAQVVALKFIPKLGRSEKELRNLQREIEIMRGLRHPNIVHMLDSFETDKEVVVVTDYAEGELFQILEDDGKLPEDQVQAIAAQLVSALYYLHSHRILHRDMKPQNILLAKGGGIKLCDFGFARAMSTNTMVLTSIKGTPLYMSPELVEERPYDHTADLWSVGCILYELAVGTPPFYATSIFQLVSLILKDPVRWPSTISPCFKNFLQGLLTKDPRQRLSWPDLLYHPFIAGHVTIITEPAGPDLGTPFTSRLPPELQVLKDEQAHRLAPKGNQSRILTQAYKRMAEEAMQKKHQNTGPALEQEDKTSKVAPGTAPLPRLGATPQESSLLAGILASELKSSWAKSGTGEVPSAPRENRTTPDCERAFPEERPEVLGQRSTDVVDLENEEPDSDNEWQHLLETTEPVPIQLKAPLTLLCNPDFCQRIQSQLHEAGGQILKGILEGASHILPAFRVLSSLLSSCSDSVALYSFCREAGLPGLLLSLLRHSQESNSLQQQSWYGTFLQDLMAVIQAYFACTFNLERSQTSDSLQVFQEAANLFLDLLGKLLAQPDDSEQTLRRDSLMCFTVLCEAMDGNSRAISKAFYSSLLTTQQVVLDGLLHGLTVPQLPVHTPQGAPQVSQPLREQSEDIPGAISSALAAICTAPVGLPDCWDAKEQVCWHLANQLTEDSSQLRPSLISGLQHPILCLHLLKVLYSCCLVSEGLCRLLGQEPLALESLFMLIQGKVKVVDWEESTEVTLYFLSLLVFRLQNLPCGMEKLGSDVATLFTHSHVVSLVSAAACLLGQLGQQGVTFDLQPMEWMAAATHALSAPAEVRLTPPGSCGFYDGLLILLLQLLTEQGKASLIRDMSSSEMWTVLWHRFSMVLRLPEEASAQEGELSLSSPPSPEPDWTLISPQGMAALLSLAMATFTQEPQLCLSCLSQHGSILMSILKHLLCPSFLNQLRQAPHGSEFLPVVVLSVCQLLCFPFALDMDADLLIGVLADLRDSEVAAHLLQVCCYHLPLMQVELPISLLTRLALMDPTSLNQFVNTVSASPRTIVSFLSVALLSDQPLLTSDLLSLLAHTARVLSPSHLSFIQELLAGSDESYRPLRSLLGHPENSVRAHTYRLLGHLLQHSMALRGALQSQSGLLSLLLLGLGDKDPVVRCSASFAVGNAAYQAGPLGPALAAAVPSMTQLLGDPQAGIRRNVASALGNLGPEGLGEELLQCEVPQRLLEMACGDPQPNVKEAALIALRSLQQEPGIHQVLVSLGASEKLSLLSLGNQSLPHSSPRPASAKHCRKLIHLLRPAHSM
Excerpt: as §2

[17] = target: T17, CDK4-cyclinD1 (Homo sapiens, UniProt P11802); assay: KINOMEscan at 1 μM, CDK4-cyclinD1; assay type: binding; conditions: 1000 nM, read-out: Percent Control
T17 construct: purchased Eurofins DiscoverX KINOMEscan
Excerpt: as §2

[18] = target: T18, STK39 (Homo sapiens, UniProt Q9UEW8); assay: KINOMEscan at 1 μM, STK39; assay type: binding; conditions: 1000 nM, read-out: Percent Control
T18 construct: purchased Eurofins DiscoverX KINOMEscan
Excerpt: as §2

[19] = target: T19, MST2 (Homo sapiens, UniProt Q13188); assay: KINOMEscan at 1 μM, MST2; assay type: binding; conditions: 1000 nM, read-out: Percent Control
T19 construct: purchased Eurofins DiscoverX KINOMEscan
Excerpt: as §2

[20] = target: T20, SRPK1 (Homo sapiens, UniProt Q96SB4); assay: KINOMEscan at 1 μM, SRPK1; assay type: binding; conditions: 1000 nM, read-out: Percent Control
T20 construct: purchased Eurofins DiscoverX KINOMEscan
Excerpt: as §2

[21] = target: T21, EGFR(L858R) (Homo sapiens, UniProt P00533, L858R); assay: KINOMEscan binding assay at 1 μM, EGFR(L858R); conditions: Compound Concentration 1000 nM; read-out: Percent Control
T21 construct: purchased Eurofins DiscoverX KINOMEscan
Excerpt: as §2

[22] = target: T22, JAK3(JH1domain-catalytic) (Homo sapiens, UniProt P52333); assay: KINOMEscan at 1 μM, JAK3(JH1domain-catalytic); assay type: binding; conditions: 1000 nM, read-out: Percent Control
T22 construct: JAK3(JH1domain-catalytic); purchased Eurofins DiscoverX KINOMEscan
Excerpt: as §2

[23] = target: T23, TESK1 (Homo sapiens, UniProt Q15569); assay: KINOMEscan at 1 μM, TESK1; assay type: binding; conditions: 1000 nM, read-out: Percent Control
T23 construct: purchased Eurofins DiscoverX KINOMEscan
T23 sequence (Q15569 whole entry): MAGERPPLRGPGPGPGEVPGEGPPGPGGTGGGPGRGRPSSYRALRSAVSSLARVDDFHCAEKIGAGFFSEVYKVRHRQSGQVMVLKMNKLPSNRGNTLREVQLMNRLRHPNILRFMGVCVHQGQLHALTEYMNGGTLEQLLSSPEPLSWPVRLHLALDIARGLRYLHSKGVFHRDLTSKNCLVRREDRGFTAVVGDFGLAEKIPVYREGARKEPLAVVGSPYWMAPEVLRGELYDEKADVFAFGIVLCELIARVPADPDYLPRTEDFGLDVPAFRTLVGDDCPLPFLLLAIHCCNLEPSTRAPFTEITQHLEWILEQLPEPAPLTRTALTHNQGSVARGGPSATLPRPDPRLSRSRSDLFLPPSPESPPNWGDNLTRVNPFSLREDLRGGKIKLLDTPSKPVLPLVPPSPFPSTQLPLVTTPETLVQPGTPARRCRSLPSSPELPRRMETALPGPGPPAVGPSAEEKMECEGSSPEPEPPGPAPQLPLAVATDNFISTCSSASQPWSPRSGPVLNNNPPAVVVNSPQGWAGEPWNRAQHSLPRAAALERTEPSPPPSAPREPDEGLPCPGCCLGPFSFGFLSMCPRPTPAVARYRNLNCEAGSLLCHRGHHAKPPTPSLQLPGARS
Excerpt: as §2

[24] = target: T24, TYK2(JH1domain-catalytic) (Homo sapiens, UniProt P29597); assay: KINOMEscan at 1 μM, TYK2(JH1domain-catalytic); assay type: binding; conditions: 1000 nM, read-out: Percent Control
T24 construct: TYK2(JH1domain-catalytic); purchased Eurofins DiscoverX KINOMEscan
Excerpt: as §2

[25] = target: T25, CLK4 (Homo sapiens, UniProt Q9HAZ1); assay: KINOMEscan at 1 μM, CLK4; assay type: binding; conditions: 1000 nM, read-out: Percent Control
T25 construct: purchased Eurofins DiscoverX KINOMEscan
Excerpt: as §2

[26] = target: T26, TSSK3 (Homo sapiens, UniProt Q96PN8); assay: KINOMEscan at 1 μM, TSSK3; assay type: binding; conditions: 1000 nM, read-out: Percent Control
T26 construct: purchased Eurofins DiscoverX KINOMEscan
Excerpt: as §2

[27] = target: T27, PKMYT1 (Homo sapiens, UniProt Q99640); assay: KINOMEscan at 1 μM, PKMYT1; assay type: binding; conditions: 1000 nM, read-out: Percent Control
T27 construct: purchased Eurofins DiscoverX KINOMEscan
T27 sequence (Q99640 whole entry): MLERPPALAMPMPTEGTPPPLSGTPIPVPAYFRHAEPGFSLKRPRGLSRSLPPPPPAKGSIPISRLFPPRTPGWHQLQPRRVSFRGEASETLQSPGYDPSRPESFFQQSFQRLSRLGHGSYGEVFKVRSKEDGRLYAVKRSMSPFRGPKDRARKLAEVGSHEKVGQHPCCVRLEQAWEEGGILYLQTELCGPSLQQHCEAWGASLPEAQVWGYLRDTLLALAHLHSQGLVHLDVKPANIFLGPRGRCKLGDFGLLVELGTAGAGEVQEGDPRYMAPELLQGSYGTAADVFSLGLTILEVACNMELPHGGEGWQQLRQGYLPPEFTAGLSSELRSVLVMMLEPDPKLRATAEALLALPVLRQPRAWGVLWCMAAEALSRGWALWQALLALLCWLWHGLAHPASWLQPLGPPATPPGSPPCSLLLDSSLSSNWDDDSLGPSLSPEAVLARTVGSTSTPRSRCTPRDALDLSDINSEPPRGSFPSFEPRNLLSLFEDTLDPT
Excerpt: as §2

[28] = target: T28, NEK3 (Homo sapiens, UniProt P51956); assay: KINOMEscan at 1 μM, NEK3; assay type: binding; conditions: 1000 nM, read-out: Percent Control
T28 construct: purchased Eurofins DiscoverX KINOMEscan
Excerpt: as §2

[29] = target: T29, HIPK1 (Homo sapiens, UniProt Q86Z02); assay: KINOMEscan at 1 μM, HIPK1; assay type: binding; conditions: 1000 nM, read-out: Percent Control
T29 construct: purchased Eurofins DiscoverX KINOMEscan
Excerpt: as §2

[30] = target: T30, PIK4CB (Homo sapiens, UniProt Q9UBF8); assay: KINOMEscan at 1 μM, PIK4CB; assay type: binding; conditions: 1000 nM, read-out: Percent Control
T30 construct: purchased Eurofins DiscoverX KINOMEscan
T30 sequence (Q9UBF8 whole entry): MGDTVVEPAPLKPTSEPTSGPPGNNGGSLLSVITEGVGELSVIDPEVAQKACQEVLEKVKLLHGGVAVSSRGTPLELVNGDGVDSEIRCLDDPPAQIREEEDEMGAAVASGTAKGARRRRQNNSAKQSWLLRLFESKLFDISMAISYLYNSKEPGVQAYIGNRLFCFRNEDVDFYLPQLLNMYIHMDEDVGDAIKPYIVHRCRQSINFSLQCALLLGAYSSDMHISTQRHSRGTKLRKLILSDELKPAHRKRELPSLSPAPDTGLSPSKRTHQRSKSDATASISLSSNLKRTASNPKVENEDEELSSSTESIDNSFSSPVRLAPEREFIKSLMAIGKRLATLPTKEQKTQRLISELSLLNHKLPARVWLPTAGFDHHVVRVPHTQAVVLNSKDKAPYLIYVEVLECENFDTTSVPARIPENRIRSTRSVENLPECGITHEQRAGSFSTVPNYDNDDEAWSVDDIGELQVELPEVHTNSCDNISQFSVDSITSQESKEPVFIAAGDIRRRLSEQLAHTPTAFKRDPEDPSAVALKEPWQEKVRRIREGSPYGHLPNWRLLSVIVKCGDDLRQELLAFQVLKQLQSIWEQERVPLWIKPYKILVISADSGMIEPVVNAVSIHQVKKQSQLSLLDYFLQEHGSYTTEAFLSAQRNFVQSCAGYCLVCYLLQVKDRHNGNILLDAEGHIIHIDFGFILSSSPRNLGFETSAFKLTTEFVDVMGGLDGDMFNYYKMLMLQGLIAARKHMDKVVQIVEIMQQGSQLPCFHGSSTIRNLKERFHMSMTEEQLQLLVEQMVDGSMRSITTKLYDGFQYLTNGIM
Excerpt: as §2

[31] = target: T31, MAPKAPK5 (Homo sapiens, UniProt Q8IW41); assay: KINOMEscan binding assay at 1 μM, MAPKAPK5; conditions: Compound Concentration 1000 nM; read-out: Percent Control
T31 construct: purchased Eurofins DiscoverX KINOMEscan
Excerpt: as §2

[32] = target: T32, FES (Homo sapiens, UniProt P07332); assay: KINOMEscan at 1 μM, FES; assay type: binding; conditions: 1000 nM, read-out: Percent Control
T32 construct: purchased Eurofins DiscoverX KINOMEscan
Excerpt: as §2

[33] = target: T33, ACVRL1 (Homo sapiens, UniProt P37023); assay: KINOMEscan at 1 μM, ACVRL1; assay type: binding; conditions: 1000 nM, read-out: Percent Control
T33 construct: purchased Eurofins DiscoverX KINOMEscan
Excerpt: as §2

[34] = target: T34, JNK3 (Homo sapiens, UniProt P53779); assay: KINOMEscan binding assay at 1 μM, JNK3; conditions: Compound Concentration 1000 nM; read-out: Percent Control
T34 construct: purchased Eurofins DiscoverX KINOMEscan
T34 sequence (P53779 whole entry): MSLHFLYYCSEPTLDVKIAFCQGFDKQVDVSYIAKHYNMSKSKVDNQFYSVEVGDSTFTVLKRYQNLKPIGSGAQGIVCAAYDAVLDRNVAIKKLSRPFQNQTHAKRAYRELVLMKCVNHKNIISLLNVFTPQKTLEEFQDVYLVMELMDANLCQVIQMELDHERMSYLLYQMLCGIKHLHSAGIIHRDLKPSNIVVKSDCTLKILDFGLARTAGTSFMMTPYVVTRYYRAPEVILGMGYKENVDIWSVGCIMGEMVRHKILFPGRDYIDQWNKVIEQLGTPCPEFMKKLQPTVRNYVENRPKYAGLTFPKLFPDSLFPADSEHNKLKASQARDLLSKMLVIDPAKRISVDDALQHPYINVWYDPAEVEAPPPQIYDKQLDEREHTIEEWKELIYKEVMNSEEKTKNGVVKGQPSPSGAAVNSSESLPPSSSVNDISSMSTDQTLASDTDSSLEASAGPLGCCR
Excerpt: as §2

Cc1cccc(-c2cnc3occ(-c4ccc(C(=O)O)c(C5CCCC5)c4)c3c2)c1 [SGC-CAMKK2-1 (YL-36)]
remaining binding at 1 µM [1]: 100%
remaining binding at 1 µM [2]: 100%
remaining binding at 1 µM [3]: 85%
remaining binding at 1 µM [4]: 94%
remaining binding at 1 µM [5]: 55%
remaining binding at 1 µM [6]: 100%
remaining binding at 1 µM [7]: 100%
remaining binding at 1 µM [8]: 100%
remaining binding at 1 µM [9]: 89%
remaining binding at 1 µM [10]: 100%
remaining binding at 1 µM [11]: 89%
remaining binding at 1 µM [12]: 100%

O=C(O)c1ccc(-c2coc3ncc(-c4ccccc4)cc23)cc1Cl [SGC-CAMKK2-1N (UNC-YL-83)]
remaining binding at 1 µM [13]: 61%
remaining binding at 1 µM [14]: 96%
remaining binding at 1 µM [15]: 100%
remaining binding at 1 µM [16]: 75%
remaining binding at 1 µM [17]: 70%
remaining binding at 1 µM [18]: 77%
remaining binding at 1 µM [19]: 79%
remaining binding at 1 µM [20]: 85%
remaining binding at 1 µM [21]: 100%
remaining binding at 1 µM [22]: 87%
remaining binding at 1 µM [23]: 59%
remaining binding at 1 µM [24]: 89%
remaining binding at 1 µM [25]: 93%
remaining binding at 1 µM [26]: 65%
remaining binding at 1 µM [27]: 94%
remaining binding at 1 µM [28]: 71%
remaining binding at 1 µM [29]: 44%
remaining binding at 1 µM [30]: 54%
remaining binding at 1 µM [31]: 100%
remaining binding at 1 µM [32]: 88%
remaining binding at 1 µM [33]: 100%
remaining binding at 1 µM [34]: 100%
